Literature values as cited in US7371422B2, “Cereal grain kernels fortified with iron and calcium” (The Procter & Gamble Company, priority 2003, dated 2008).

Conditions: in adult college students (Bovell-Benjamin et al. 1999); relative to ferrous sulfate

NCC(=O)[O-].NCC(=O)[O-].[Fe+2] [Ferrous bis-glycinate, ferrous bis-glycinate]
absorbed ... times better than ferrous sulfate: 4.7 times
